# From patent US11571485B2, “Peptides and antibodies for detecting changes in alzheimer's disease brain and methods of use thereof” (Sanford Burnham Prebys Medical Discovery Institute, priority 2016, dated 2023)
# Assays:
# Tg2576 mouse brain = test: In vivo homing of FAM-DAG in Tg2576 mice
# Procedure: (§1) All animal experiments were conducted under an approved protocol of the Institutional Animal Care and Use Committee of Sanford Burnham Prebys Medical Discovery Institute. The following transgenic mouse models were used for peptide homing studies—hAPP-J20 ([…], Nature genetics 1, 345-347 (1992)), Tg2576 (Jacobsen et al., Proc Natl Acad Sci USA 103, 5161-5166 (2006)), and mTHY-1-α-synuclein model (Chesselet et al., Neurotherapeutics 9, 297-314 (2012)). The P13 glioblastoma model is a patient-derived orthotopic xenograft model (Bougnaud et al., Oncotarget, (2016)). Spheroids were cultured as described previously (Bjerkvig et al., J Neurosurg 72, 463-475 (1990)). After two weeks in culture, spheroids (volume 2.5 μl) were stereotactically implanted into the brains of nude mice. Mice were used approximately 6 weeks after tumors were induced, when mice started presenting neurological symptoms. The acute brain injury model was setup as previously described (Mann et al., Nature communications 7, 11980 (2016)). Briefly, 8 to 10 week-old male BL6 mice were anaesthetized with 4% isoflurane in 70% N2O and 30% O2, and a 5-mm craniotomy was performed using a portable drill and a trephine over the right parietotemporal cortex using a stereotactic frame. […]
# human AD brain sections = test: Ex vivo overlay binding to human AD brain sections
# Procedure: PFA fixed sections were incubated in PBS for 10 minutes, followed by PBS-Triton-x-100 (0.2%) for 10 minutes. Sections were rinsed with PBST, mounted in a slide holder, and subsequently washed with PBS-T during 12 minutes. Slides were blocked with blocking buffer for 60 minutes at room temperature. Then, peptides were incubated at a concentration of 10 μg/mL dissolved in concentrated blocking buffer, for three hours at room temperature. Sections were then washed with three 4-minute washes of PBS-T, and subsequently fixed with PFA for 10 minutes, followed by three 3-minute washes with PBS-T. Sections were then incubated with primary antibody at 1/200 in diluted blocking buffer overnight at 4° C. Later, sections were washed with three 4-minute washes with PBS-T. Slides were then incubated with secondary antibody at 1/200 dilution in diluted blocking buffer for 30 minutes at room temperature, followed by three 4-minute washes of PBS-T. Sections were then counterstained with DAPI for 5 minutes, washed with PBS-T and mounted.
# Postmortem human brain samples were obtained from the New York Brain Bank at Columbia University, New York. The patient was a person with a diagnosis of AD neuropathologic changes ([A3, B3, C3]). The normal brain tissue was obtained from BioChain Institute Inc. (Newark, Calif.). The donor was a person without any neurologic diagnosis on detailed neuropathologic evaluation. The Parkinson's disease brain tissue was obtained from UCSD Pathology bank. Frozen brain tissue was sectioned for immunohistochemistry and ex vivo overlay binding with FAM-peptides.
# [1] = tested on: hippocampus of hAPP-J20 AD and wild-type mice; test: In vivo CX7C T7 phage library screen, sequencing of phage recovered from hippocampus; set-up: species or system mouse; settings: 9-month AD mouse vs normal mouse hippocampus
# Procedure: In vivo phage screening was conducted using a T7 phage library expressing random peptides with the composition of CXnC (C=cysteine; X=any amino acid; n=7). The mouse model used for this screening is the hAPP-J20 that expresses amyloid precursor protein (APP) with both the Swedish and Indiana mutations (Murrell et al., Science 254, 97-99. (1991); Mullan et al., Nat. Genet. 1, 345-347. (1992)). Peptides homing to the hippocampus of these mice was the focus because the hippocampal region is where the AB-related lesions and damage are most prevalent early on in the disease.
# A CX7C phage library was intravenously injected into 9 month-old AD and wild-type (WT) littermate mice, and allowed to circulate for 30 min, after which mice were perfused with saline, brains were collected, and the hippocampal region was dissected and subjected to phage titration and high throughput sequencing of the phage inserts. A surprise result was that the number of phage recovered from the AD hippocampus samples was much higher than the number recovered from a similar screen on normal littermates of the AD mice (FIG. 1A). […] BBB leakage has also been reported in AD patients.
# Parallel phage library screens were performed on a normal mouse and a 9-month old AD transgenic mouse (J20 hAPP tg mouse line, which expresses transgenic amyloid precursor protein with two disease-related mutations). The library was intravenously injected into anesthetized mice and the hippocampal area of the brain was collected 30 min after intravenous injection of the library, phage was isolated from the tissue samples and subjected to high throughput sequencing of the peptide-encoding inserts in the phage DNA. Table 1 list most abundantly represented peptide from the two kinds of brains, and all peptides with significant representation in the AD brain and absent or nearly absent in the normal brain are listed in Table 2. Two peptides, CASPRLSKC (SEQ ID NO: 3) and CESPLLSEC (SEQ ID NO: 11), from among the highest scoring ones were subjected to detailed studies as described below.
# hAPP-J20 mice were intravenously injected with 1e10 pfu of a CX7C (wherein X is any amino acid) naïve phage library, in 100 μL of PBS. The library was allowed to circulate for 30 minutes, after which mice were anesthetized with 2.5% avertin and perfused with PBS intracardially. The brain was removed and the hippocampus was extracted and homogenized in LB-NP 40 (1%) and phage was processed as described (Teesalu et al., Methods Enzymol 503, 35-56 (2012)). The phages in the lysate were rescued by amplification in E. coli and peptide-encoding portion of the phage genome was sequenced using Ion Torrent high throughput sequencing.
# [2] = tested on: P13 model of angiogenic glioblastoma; test: In vivo homing in P13 glioblastoma model; set-up: species or system mouse; settings: systemically injected
# Procedure: as §1
sequence,measurement,setting,value
CDAGRKQKC,Colocalization in Tg2576 brain sections,"Tg2576 mouse brain; DAG-injected Tg2576 mice, immunostaining",significant colocalization of DAG with Aβ and CD31
same,Homing in Tg2576 model,Tg2576 mouse brain; i.v. FAM-DAG,detected both in the hippocampus and in the cortex
same,Binding to human AD brain sections,human AD brain sections; overlay,bound strongly to the hippocampal region
same,Inhibition of binding to human AD sections by anti-CTGF antibody,human AD brain sections; pre-incubation with anti-CTGF antibody,partially inhibited by pre-incubation with anti-CTGF antibody
same,"Representation in sequenced phage pools, AD versus normal brain",[1],dominated
same,Tumor homing,[2],Strong tumor homing
